{"source": "the supplement of paper PMC10307832", "assay_in_all_cases": "relative viability (nuclei count vs DMSO), 5 days (fraction); higher = more cells survive", "key": {"COR-L23": {"tested_on": "COR-L23", "how_it_was_run": "(§1)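 One day after seeding in 1536-well plates, lung cancer cell lines were dosed by pin tool. Dosing was either single-drug or a fixed anchor-drug dose plus five library-drug doses (not always all listed) in √10 steps. After 5 days, nuclei were stained in one fix-and-stain step and counted on 4× images, and relative viability is the nuclei count of treated wells over that of vehicle wells, given as the median of duplicate plates.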"}, "SK-MES-1": {"tested_on": "SK-MES-1", "how_it_was_run": "as §1"}, "NCI-H1437": {"tested_on": "NCI-H1437", "how_it_was_run": "as §1"}, "NCI-H1651": {"tested_on": "NCI-H1651", "how_it_was_run": "as §1"}, "Calu-6": {"tested_on": "Calu-6", "how_it_was_run": "as §1"}, "EBC-1": {"tested_on": "EBC-1", "how_it_was_run": "as §1"}, "NCI-H1299": {"tested_on": "NCI-H1299", "how_it_was_run": "as §1"}, "IA-LM": {"tested_on": "IA-LM", "how_it_was_run": "as §1"}, "ChaGo-K-1": {"tested_on": "ChaGo-K-1", "how_it_was_run": "as §1"}, "SW 1573": {"tested_on": "SW 1573", "how_it_was_run": "as §1"}, "ABC-1": {"tested_on": "ABC-1", "how_it_was_run": "as §1"}, "NCI-H1703": {"tested_on": "NCI-H1703", "how_it_was_run": "as §1"}, "A549": {"tested_on": "A549", "how_it_was_run": "as §1"}}}
{"smiles": "O=c1cc(-c2cccc3c2Sc2ccccc2S3)oc(N2CCOCC2)c1", "note": "+ C[C@@H](Oc1cc(-c2cnn(C3CCNCC3)c2)cnc1N)c1c(Cl)ccc(F)c1Cl [Crizotinib] (partner 1 µM)", "values": [{"measurement": "relative viability", "setting": "COR-L23; first compound 0.08 µM", "result": 0.744}, {"measurement": "relative viability", "setting": "COR-L23; first compound 0.253 µM", "result": 0.876}, {"measurement": "relative viability", "setting": "COR-L23; first compound 0.8 µM", "result": 0.792}, {"measurement": "relative viability", "setting": "COR-L23; first compound 2.53 µM", "result": 0.737}, {"measurement": "relative viability", "setting": "COR-L23; first compound 8 µM", "result": 0.616}, {"measurement": "relative viability", "setting": "SK-MES-1; first compound 0.08 µM", "result": 1.03}, {"measurement": "relative viability", "setting": "SK-MES-1; first compound 0.253 µM", "result": 0.949}, {"measurement": "relative viability", "setting": "SK-MES-1; first compound 0.8 µM", "result": 0.937}, {"measurement": "relative viability", "setting": "SK-MES-1; first compound 2.53 µM", "result": 0.925}, {"measurement": "relative viability", "setting": "SK-MES-1; first compound 8 µM", "result": 1.02}, {"measurement": "relative viability", "setting": "NCI-H1437; first compound 0.08 µM", "result": 1.09}, {"measurement": "relative viability", "setting": "NCI-H1437; first compound 0.253 µM", "result": 1.18}, {"measurement": "relative viability", "setting": "NCI-H1437; first compound 0.8 µM", "result": 1.24}, {"measurement": "relative viability", "setting": "NCI-H1437; first compound 2.53 µM", "result": 0.899}, {"measurement": "relative viability", "setting": "NCI-H1437; first compound 8 µM", "result": 1.07}, {"measurement": "relative viability", "setting": "NCI-H1651; first compound 0.08 µM", "result": 0.916}, {"measurement": "relative viability", "setting": "NCI-H1651; first compound 0.253 µM", "result": 0.889}, {"measurement": "relative viability", "setting": "NCI-H1651; first compound 0.8 µM", "result": 0.916}, {"measurement": "relative viability", "setting": "NCI-H1651; first compound 2.53 µM", "result": 0.882}, {"measurement": "relative viability", "setting": "NCI-H1651; first compound 8 µM", "result": 0.903}, {"measurement": "relative viability", "setting": "Calu-6; first compound 0.08 µM", "result": 0.725}, {"measurement": "relative viability", "setting": "Calu-6; first compound 0.253 µM", "result": 0.839}, {"measurement": "relative viability", "setting": "Calu-6; first compound 0.8 µM", "result": 0.969}, {"measurement": "relative viability", "setting": "Calu-6; first compound 2.53 µM", "result": 0.692}, {"measurement": "relative viability", "setting": "Calu-6; first compound 8 µM", "result": 0.733}, {"measurement": "relative viability", "setting": "EBC-1; first compound 0.08 µM", "result": 0.212}, {"measurement": "relative viability", "setting": "EBC-1; first compound 0.253 µM", "result": 0.175}, {"measurement": "relative viability", "setting": "EBC-1; first compound 0.8 µM", "result": 0.156}, {"measurement": "relative viability", "setting": "EBC-1; first compound 2.53 µM", "result": 0.182}, {"measurement": "relative viability", "setting": "EBC-1; first compound 8 µM", "result": 0.26}, {"measurement": "relative viability", "setting": "NCI-H1299; first compound 0.08 µM", "result": 0.999}, {"measurement": "relative viability", "setting": "NCI-H1299; first compound 0.253 µM", "result": 0.977}, {"measurement": "relative viability", "setting": "NCI-H1299; first compound 0.8 µM", "result": 1}, {"measurement": "relative viability", "setting": "NCI-H1299; first compound 2.53 µM", "result": 0.956}, {"measurement": "relative viability", "setting": "NCI-H1299; first compound 8 µM", "result": 0.835}, {"measurement": "relative viability", "setting": "IA-LM; first compound 0.08 µM", "result": 0.899}, {"measurement": "relative viability", "setting": "IA-LM; first compound 0.253 µM", "result": 0.971}, {"measurement": "relative viability", "setting": "IA-LM; first compound 0.8 µM", "result": 0.847}, {"measurement": "relative viability", "setting": "IA-LM; first compound 8 µM", "result": 0.9}, {"measurement": "relative viability", "setting": "ChaGo-K-1; first compound 0.08 µM", "result": 1.09}, {"measurement": "relative viability", "setting": "ChaGo-K-1; first compound 0.253 µM", "result": 1.35}, {"measurement": "relative viability", "setting": "ChaGo-K-1; first compound 0.8 µM", "result": 1.25}, {"measurement": "relative viability", "setting": "ChaGo-K-1; first compound 8 µM", "result": 1.22}, {"measurement": "relative viability", "setting": "SW 1573; first compound 0.08 µM", "result": 0.76}, {"measurement": "relative viability", "setting": "SW 1573; first compound 0.253 µM", "result": 0.852}, {"measurement": "relative viability", "setting": "SW 1573; first compound 0.8 µM", "result": 0.886}, {"measurement": "relative viability", "setting": "SW 1573; first compound 2.53 µM", "result": 0.794}, {"measurement": "relative viability", "setting": "SW 1573; first compound 8 µM", "result": 0.849}, {"measurement": "relative viability", "setting": "ABC-1; first compound 0.08 µM", "result": 1.27}, {"measurement": "relative viability", "setting": "ABC-1; first compound 0.253 µM", "result": 1.24}, {"measurement": "relative viability", "setting": "ABC-1; first compound 0.8 µM", "result": 1.05}, {"measurement": "relative viability", "setting": "ABC-1; first compound 2.53 µM", "result": 1.31}, {"measurement": "relative viability", "setting": "ABC-1; first compound 8 µM", "result": 1.49}, {"measurement": "relative viability", "setting": "NCI-H1703; first compound 0.08 µM", "result": 0.463}, {"measurement": "relative viability", "setting": "NCI-H1703; first compound 0.253 µM", "result": 0.519}, {"measurement": "relative viability", "setting": "NCI-H1703; first compound 0.8 µM", "result": 0.99}, {"measurement": "relative viability", "setting": "NCI-H1703; first compound 2.53 µM", "result": 1.01}, {"measurement": "relative viability", "setting": "NCI-H1703; first compound 8 µM", "result": 0.777}, {"measurement": "relative viability", "setting": "A549; first compound 0.08 µM", "result": 0.706}, {"measurement": "relative viability", "setting": "A549; first compound 0.253 µM", "result": 1.11}, {"measurement": "relative viability", "setting": "A549; first compound 0.8 µM", "result": 0.765}, {"measurement": "relative viability", "setting": "A549; first compound 2.53 µM", "result": 0.691}, {"measurement": "relative viability", "setting": "A549; first compound 8 µM", "result": 0.578}]}
